# Reference: patent US4598068A, “Benzylphenyl osides, method of preparation and use therefor” (Societe de Recheres Industrielles, priority 1983, dated 1986)
# Legend:
# [1] = system: mice; assay: Acute toxicity, intraperitoneal administration to mice; assay type: in vivo; conditions: i.p.
# Excerpt: (§1) The acute toxicity was studied by intraperitoneal administration to mice. It is expressed in the form of LD50 (lethal dose causing the death of half of the animals) or LD0 (maximum non-lethal dose).
# [2] = system: cholesterol level in the plasma; assay: Hypocholesterolemic activity: plasma cholesterol level in rats; assay type: in vivo, male Wistar rats; conditions: Rattus norvegicus, po, T=0 to T=+24 hours, not corrected for the variation in the control group, read-out: % Variation in the cholesterol level, variation in the subject treated; for change in vivo at 65 mg/kg: 65 mg/kg p.o. at T=0 and T=+7 hours; for change in vivo at 100 mg/kg: 100 mg/kg p.o. at T=0 and T=+7 hours
# Method: Hypocholesterolemic activity
# The hypocholesterolemic activity was studied on male Wistar rats (weighing about 200 to 220 g). Groups of 10 rats per product and per dose are fasted the day before the experiment. The products to be tested are administered in gum water (30 g/liter of gum arabic) at times T=0 and T=+7 hours. The cholesterol level in the plasma is measured at times T=0 and T=+24 hours and the percentage variation between T=0 and T=+24 hours is then calculated for the treated groups and the control groups.
# [3] = Acute toxicity, intraperitoneal administration to mice; assay type: in vivo; conditions: mouse, in vivo, ip, read-out: LD50 (lethal dose causing the death of half of the animals)
# Excerpt: as §1
# [4] = Antithrombotic effects (statement only); conditions: in words
Compound,LD0 (maximum non-lethal dose) [1] [mg/kg],change in vivo at 100 mg/kg [2] [%],also measured
O=[N+]([O-])c1ccc(Cc2ccc(O[C@@H]3O[C@H](CO)[C@@H](O)[C@H](O)[C@H]3O)cc2)cc1 [Example 71],≥ 900,,change in vivo at 65 mg/kg [2]: -21%
Cc1ccccc1Cc1ccc(O[C@@H]2OC[C@@H](O)[C@H](O)[C@H]2O)cc1 [Example 12],> 800,-28,
O[C@@H]1[C@@H](O)[C@H](Oc2ccc(Cc3ccc(Cl)cc3Cl)cc2)OC[C@H]1O [Example 26],,-8,LD50 [3]: 640 mg/kg
"O=[N+]([O-])c1ccc(Cc2ccc(O[C@@H]3OC[C@@H](O)[C@H](O)[C@H]3O)cc2)cc1 [Example 1, 4-(4-nitrobenzyl)phenyl β-D-xylopyranoside]",,,LD50 [3]: 650 mg/kg; change in vivo at 65 mg/kg [2]: -39%; antithrombotic effects [4]: beneficial antithrombotic effects
O[C@@H]1[C@@H](O)[C@H](Oc2ccc(Cc3ccccc3Cl)cc2)OC[C@H]1O [Example 7],> 800,-20,
O[C@@H]1[C@@H](O)[C@H](Oc2cccc(Cc3ccccc3)c2)OC[C@H]1O [Example 77],,-25,
O=[N+]([O-])c1cc(Cc2ccccc2)ccc1O[C@@H]1OC[C@@H](O)[C@H](O)[C@H]1O [Example 34],,,LD50 [3]: 250 mg/kg; change in vivo at 25 mg/kg ([2]; 25 mg/kg p.o. at T=0 and T=+7 hours): -15%
C[C@@H]1O[C@@H](Oc2ccc(Cc3ccc([N+](=O)[O-])cc3)cc2)[C@H](O)[C@H](O)[C@H]1O [Example 5],,-7,
"O=[N+]([O-])c1cccc(Cc2ccc(O[C@@H]3OC[C@@H](O)[C@H](O)[C@H]3O)cc2)c1 [Example 2, 4-(3-nitrobenzyl)phenyl β-D-xylopyranoside]",> 800,-27,
O[C@@H]1[C@@H](O)[C@H](Oc2ccc(Cc3cccc(Cl)c3)cc2)OC[C@H]1O [Example 8],,-37,LD50 [3]: ≥ 800 mg/kg
Oc1ccc(Cc2ccc(O[C@@H]3OC[C@@H](O)[C@H](O)[C@H]3O)cc2)cc1 [Example 29],≥ 800,-37,
Nc1cccc(Cc2ccc(O[C@@H]3OC[C@@H](O)[C@H](O)[C@H]3O)cc2)c1 [Example 23],≥ 900,-28,
CN(C)c1ccc(Cc2ccc(O[C@@H]3OC[C@@H](O)[C@H](O)[C@H]3O)cc2)cc1 [Example 20],,-22,
"O[C@@H]1[C@@H](O)[C@H](Oc2ccc(Cc3ccccc3)cc2)OC[C@H]1O [Example 33, 4-(benzyl)phenyl β-D-xylopyranoside]",> 800,-38,
Cc1ccc(Cc2ccc(O[C@@H]3OC[C@@H](O)[C@H](O)[C@H]3O)cc2)cc1 [Example 11],> 800,-19,
"CSc1ccc(Cc2ccc(O[C@@H]3OC[C@@H](O)[C@H](O)[C@H]3O)cc2)cc1 [Example 85, 4-(4-methylthiobenzyl)phenyl β-D-xylopyranoside]",> 800,-23,
Nc1ccc(Cc2ccc(O[C@@H]3OC[C@@H](O)[C@H](O)[C@H]3O)cc2)cc1 [Example 19],> 800,-29,
Cc1cc(Cc2ccccc2)ccc1O[C@@H]1OC[C@@H](O)[C@H](O)[C@H]1O [Example 79],,,LD50 [3]: 320 mg/kg; change in vivo at 30 mg/kg ([2]; 30 mg/kg p.o. at T=0 and T=+7 hours): -37%

Compound,LD0 (maximum non-lethal dose) [1] [mg/kg],change in vivo at 100 mg/kg [2] [%],also measured
CC(=O)N[C@H]1[C@H](Oc2ccc(Cc3ccc([N+](=O)[O-])cc3)cc2)O[C@H](CO)[C@@H](O)[C@@H]1O [Example 3],> 800,-42,
"O[C@@H]1[C@@H](O)[C@H](Oc2ccc(Cc3ccc(Cl)cc3)cc2)OC[C@H]1O [Example 9, 4-(4-chlorobenzyl)phenyl β-D-xylopyranoside]",> 800,-37,
Cc1ccc(Cc2cc(C)c(OC3OC[C@@H](O)[C@H](O)[C@H]3O)c(C)c2)cc1 (stereo partly drawn) [Example 30],,-12,LD50 [3]: 630 mg/kg
"CS(=O)(=O)c1ccc(Cc2ccc(O[C@@H]3O[C@H](CO)[C@@H](O)[C@H](O)[C@H]3O)cc2)cc1 [Example 91, 4-(4-mesylbenzyl)phenyl β-D-glucopyranoside]",> 800,-40,
COc1ccc(Cc2ccc(O[C@@H]3OC[C@@H](O)[C@H](O)[C@H]3O)cc2)cc1 [Example 15],> 800,-47,
Cc1cc(C)c(Cc2ccc(O[C@@H]3OC[C@@H](O)[C@H](O)[C@H]3O)cc2)c(C)c1 [Example 27],≥ 800,-13,
Cc1cc(Cc2ccc([N+](=O)[O-])cc2)cc(C)c1OC1OC[C@@H](O)[C@H](O)[C@H]1O (stereo partly drawn) [Example 82],> 800,,
O=[N+]([O-])c1ccc(Cc2ccc(O[C@@H]3OC[C@H](O)[C@H](O)[C@H]3O)cc2)cc1 [Example 6],≥ 900,-29,
"CC(=O)N[C@H]1[C@H](Oc2ccc(Cc3ccc(S(C)(=O)=O)cc3)cc2)O[C@H](CO)[C@@H](O)[C@@H]1O [Example 93, 4-(4-mesylbenzyl)phenyl β-D-N-acetylglucosaminopyranoside]",> 800,-36,
O[C@@H]1[C@@H](O)[C@H](Oc2ccc(Cc3ccc(Br)cc3)cc2)OC[C@H]1O [Example 10],≥ 900,-39,
O[C@@H]1[C@@H](O)[C@H](Oc2cccc(Cc3ccc(Cl)cc3)c2)OC[C@H]1O [Example 75],,-43,
O[C@@H]1[C@@H](O)[C@H](Oc2ccc(Cc3ccc(C(F)(F)F)cc3)cc2)OC[C@H]1O [Example 18],,-17,LD50 [3]: > 900 mg/kg
Cc1cccc(Cc2ccc(O[C@@H]3OC[C@@H](O)[C@H](O)[C@H]3O)cc2)c1 [Example 13],≥ 800,-24,
COc1cccc(Cc2ccc(O[C@@H]3OC[C@@H](O)[C@H](O)[C@H]3O)cc2)c1 [Example 17],> 1000,-50,
O=[N+]([O-])c1ccc(Cc2ccc(O[C@@H]3O[C@H](CO)[C@H](O)[C@H](O)[C@H]3O)cc2)cc1 [Example 4],≥ 900,-33,
"CS(=O)(=O)c1ccc(Cc2ccc(O[C@@H]3OC[C@@H](O)[C@H](O)[C@H]3O)cc2)cc1 [Example 89, 4-(4-mesylbenzyl)phenyl β-D-xylopyranoside]",,,LD50 [3]: 450 mg/kg; change in vivo at 45 mg/kg ([2]; 45 mg/kg p.o. at T=0 and T=+7 hours): -30%
CC(=O)O[C@@H]1[C@@H](OC(C)=O)[C@H](Oc2ccc(Cc3c(C)cc(C)cc3C)cc2)OC[C@H]1OC(C)=O [Example 62],> 900,-18,
